Experimental data published in patent publication US10124004B2, “Pyrido[3,4-d]pyrimidine derivative and pharmaceutically acceptable salt thereof” (Teijin Pharma Limited, priority 2015, dated 2018).
Like-named read-outs stand apart in the source and are kept apart here.

Columns and labels:
[1] = molecular target: T1, CDK4/cyclin D3 (Homo sapiens, UniProt P11802); assay: Human CDK4/cyclin D3 inhibitory activity (QS S Assist CDK4/Cyclin D3_FP Kit, IMAP fluorescence polarization); type: biochemical
T1 construct: purchased Carna Biosciences, Inc. QS S Assist CDK4/Cyclin D3_FP Kit
T1 sequence (P11802 whole entry): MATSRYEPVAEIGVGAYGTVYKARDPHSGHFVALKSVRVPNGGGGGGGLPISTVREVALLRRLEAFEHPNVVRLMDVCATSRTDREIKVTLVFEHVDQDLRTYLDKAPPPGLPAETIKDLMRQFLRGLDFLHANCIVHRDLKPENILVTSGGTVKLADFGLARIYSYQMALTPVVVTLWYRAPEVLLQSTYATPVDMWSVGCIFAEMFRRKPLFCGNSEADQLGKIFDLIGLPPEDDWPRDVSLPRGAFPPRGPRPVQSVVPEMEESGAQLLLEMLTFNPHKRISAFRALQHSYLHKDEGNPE
T1 sequence (P30281 whole entry partner): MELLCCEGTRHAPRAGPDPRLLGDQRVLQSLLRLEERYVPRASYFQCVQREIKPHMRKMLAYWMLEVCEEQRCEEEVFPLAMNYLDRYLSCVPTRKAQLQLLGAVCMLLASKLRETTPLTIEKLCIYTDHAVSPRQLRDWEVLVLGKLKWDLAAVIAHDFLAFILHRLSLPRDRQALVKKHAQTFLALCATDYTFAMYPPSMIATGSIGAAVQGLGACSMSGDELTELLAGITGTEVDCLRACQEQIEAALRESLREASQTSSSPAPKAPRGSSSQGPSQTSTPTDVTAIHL
Method in brief: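 Percent inhibition, relative to DMSO with and without enzyme, was curve-fitted to give IC50 from polarization (ex 485, em 535 nm). The 45-min room-temperature reaction used 12.5-25 ng/well enzyme, kit ATP/substrate/metal mix, and HEPES pH 7.4 buffer with Tween20 and DTT, followed by 30-min IMAP binding in the dark.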

[2] = molecular target: T2, CDK2/cyclin A2 (Homo sapiens, UniProt P24941); assay: Human CDK2/cyclin A2 inhibitory activity (QS S Assist CDK2/Cyclin A2_FP Kit, IMAP fluorescence polarization); type: biochemical
T2 construct: purchased Carna Biosciences, Inc. QS S Assist CDK2/Cyclin A2_FP Kit
Method in brief: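 Kinase activity read as fluorescence polarization (485/535 nm) after phosphorylated fluorescent substrate binds IMAP reagent (30 min, RT, dark). Enzyme (2.5 ng/well) reacted 60 min at RT with ATP/substrate/metal in HEPES pH 7.4 buffer with Tween 20 and DTT; no-enzyme wells define 0% activity; IC50 by curve fit.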

[3] = 50% inhibitory concentration against CDK4/cyclin D3, given as class symbol
[4] = 50% inhibitory concentration against CDK2/cyclin A2, given as class symbol
[5] = Human CDK4/cyclin D3 inhibitory activity, read-out: CDK4 Activity symbol
[6] = Human CDK2/cyclin A2 inhibitory activity, read-out: CDK2 Activity symbol

SMILES | IC50 [1, 3] | IC50 [2, 4] | IC50 [1, 5] | IC50 [2, 6]
CC(=O)c1cc2cnc(Nc3ccc(OCCN(C)C)cn3)nc2c(NC(C)C)n1 [Compound 734] | < 10 nM | ≥ 100 nM |  | 
COC1CCC(Nc2nc(C(C)OC)cc3cnc(Nc4ccc(CN5CCNCC5)cn4)nc23)CC1 (stereo not shown) [Compound 395] |  |  | < 10 nM | ≥ 100 nM
CO[C@H](C)c1cc2cnc(Nc3ccc(N4CCNCC4)nn3)nc2c(N[C@@H]2CCCOC2)n1 [Compound 305] |  |  | < 10 nM | ≥ 100 nM
CO[C@H](C)c1cc2cnc(Nc3ccc(N4CCNCC4)nn3)nc2c(NC2CCC(C)(C)OC2)n1 (stereo partly shown) [Compound 727] | < 10 nM | ≥ 100 nM |  | 
CC(C)Nc1nc([C@@H](C)F)cc2cnc(Nc3ccc(N4CCNCC4)nn3)nc12 [Compound 718] | 10 to 100 nM | ≥ 100 nM |  | 
c1cc2c(nc1Nc1ncc3cc(C4CCOC4)nc(N[C@H]4CCCOC4)c3n1)CCNC2 (stereo partly shown) [Compound 886] | < 10 nM | ≥ 100 nM |  | 
CCCNc1nc([C@@H](C)O)cc2cnc(Nc3ccc4c(n3)CCN(CCO)C4)nc12 [Compound 1123] | 10 to 100 nM | ≥ 100 nM |  | 
CO[C@H](C)c1cc2cnc(Nc3ccc(OC4CCNCC4)cn3)nc2c(NC(C)C)n1 [Compound 289] |  |  | < 10 nM | ≥ 100 nM
CC(C)Nc1nc(C(F)F)cc2cnc(Nc3ccc(N)cn3)nc12 [Compound 87] |  |  | < 10 nM | < 10 nM
Cc1cccc(Nc2ncc3cc(C(F)F)nc(NC(C)C)c3n2)n1 [Compound 104] |  |  | 10 to 100 nM | ≥ 100 nM
CC(C)Nc1nc([C@@H](C)O)cc2cnc(Nc3ccc(N4CCNCC4)nn3)nc12 [Compound 261, (R)-1-(8-(isopropylamino)-2-((6-(piperazin-1-yl)pyridazin-3-yl)amino)pyrido[3,4-d]pyrimidin-6-yl)ethanol] |  |  | < 10 nM | ≥ 100 nM
CC(C)Nc1nc([C@@H](C)O)cc2cnc(Nc3ccc(C4CCNCC4)nn3)nc12 [Compound 318] |  |  | < 10 nM | ≥ 100 nM
CO[C@H](C)c1cc2cnc(Nc3ccc(N4CCOCC4)cn3)nc2c(NC(C)C)n1 [Compound 214] |  |  | < 10 nM | ≥ 100 nM
CO[C@H](C)c1cc2cnc(Nc3ccc(N4CCC(C)(N)CC4)nn3)nc2c(NC(C)C)n1 [Compound 560] |  |  | < 10 nM | ≥ 100 nM
CC(C)Nc1nc([C@@H](C)O)cc2cnc(Nc3ccc(Cn4cncn4)cn3)nc12 [Compound 949] | < 10 nM | ≥ 100 nM |  | 
CC(C)Nc1nc([C@@H](C)O)cc2cnc(Nc3cnc(N4CCNCC4=O)cn3)nc12 [Compound 716] | 10 to 100 nM | ≥ 100 nM |  | 
Cc1cc(Nc2ncc3cc([C@@H](C)O)nc(NC(C)C)c3n2)ncc1N1CCNCC1=O [Compound 780] | 10 to 100 nM | ≥ 100 nM |  | 
CCCNc1nc([C@@H](C)O)cc2cnc(Nc3ccc(N4CCC(O)CC4)nn3)nc12 [Compound 1000] | 10 to 100 nM | ≥ 100 nM |  | 
CC(C)Nc1nc(C(F)F)cc2cnc(Nc3ccc(C(=O)NCCO)cn3)nc12 [Compound 109] |  |  | 10 to 100 nM | ≥ 100 nM
CC(C)Nc1nc(C2CCOC2)cc2cnc(Nc3ccc(CN4CCNCC4)cn3)nc12 (stereo not shown) [Compound 881] | < 10 nM | ≥ 100 nM |  | 
COCC(C)(C)Nc1nc([C@@H](C)O)cc2cnc(Nc3ccc(CN4CCCOCC4)cn3)nc12 [Compound 293] |  |  | < 10 nM | ≥ 100 nM
CC(C)Nc1nc(C(F)F)cc2cnc(Nc3ccc(-c4ccncc4)cn3)nc12 [Compound 100] |  |  | 10 to 100 nM | ≥ 100 nM
CC(C)Nc1nc(C(C)O)cc2cnc(Nc3ccc(CN4CCNCC4)cn3)nc12 (stereo not shown) [Compound 79] |  |  | < 10 nM | ≥ 100 nM
